Data on two compounds can be found in paper PMC8865417, “Receptor Interaction Profiles of 4-Alkoxy-3,5-Dimethoxy-Phenethylamines (Mescaline Derivatives) and Related Amphetamines” (Frontiers in Pharmacology, 2022).

In test [1] the target is T1, rat TAAR1 (Rattus norvegicus, UniProt Q923Y9).
T1 construct: expressed in transfected cells; host or cells: HEK 293 cells (membrane preparations)
More on the design: method as in Simmler et al. (2013). As to conditions: reference substance; ref Simmler et al. (2013); read-out: rTAAR1 Ki; cited from earlier work.

Test [2] addresses T2, mouse TAAR1 (Mus musculus, UniProt Q923Y8).
T2 construct: expressed in transfected cells; host or cells: HEK 293 cells (membrane preparations)
Set-up: method as in Simmler et al. (2013). As to conditions: reference substance; ref Simmler et al. (2013); read-out: mTAAR1 Ki; cited from earlier work.

Test [3] deals with T3, hα1A adrenergic receptor (Homo sapiens, UniProt P35348).
T3 construct: expressed in transfected cells; host or cells: Chinese hamster ovary cells (membrane preparations)
T3 sequence (P35348 1-466): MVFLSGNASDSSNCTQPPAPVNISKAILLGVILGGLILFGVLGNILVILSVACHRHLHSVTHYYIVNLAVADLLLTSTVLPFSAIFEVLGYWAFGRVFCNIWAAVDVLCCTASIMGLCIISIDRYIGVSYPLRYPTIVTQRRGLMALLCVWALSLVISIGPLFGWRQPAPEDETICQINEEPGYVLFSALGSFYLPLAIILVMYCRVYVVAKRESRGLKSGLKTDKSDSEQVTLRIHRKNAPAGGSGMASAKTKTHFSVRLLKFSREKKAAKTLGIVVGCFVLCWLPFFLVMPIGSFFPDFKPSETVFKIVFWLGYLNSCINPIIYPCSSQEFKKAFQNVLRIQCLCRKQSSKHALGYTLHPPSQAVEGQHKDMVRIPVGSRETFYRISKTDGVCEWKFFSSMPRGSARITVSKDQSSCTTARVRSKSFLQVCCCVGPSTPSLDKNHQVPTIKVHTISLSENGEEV
Set-up: method as in Simmler et al. (2013). Particulars: reference substance; ref Simmler et al. (2013); cited from earlier work.

Test [4] addresses T4, hα2A adrenergic receptor (Homo sapiens, UniProt P08913).
T4 construct: expressed in transfected cells; host or cells: Chinese hamster lung cells (membrane preparations)
T4 sequence (P08913 1-465): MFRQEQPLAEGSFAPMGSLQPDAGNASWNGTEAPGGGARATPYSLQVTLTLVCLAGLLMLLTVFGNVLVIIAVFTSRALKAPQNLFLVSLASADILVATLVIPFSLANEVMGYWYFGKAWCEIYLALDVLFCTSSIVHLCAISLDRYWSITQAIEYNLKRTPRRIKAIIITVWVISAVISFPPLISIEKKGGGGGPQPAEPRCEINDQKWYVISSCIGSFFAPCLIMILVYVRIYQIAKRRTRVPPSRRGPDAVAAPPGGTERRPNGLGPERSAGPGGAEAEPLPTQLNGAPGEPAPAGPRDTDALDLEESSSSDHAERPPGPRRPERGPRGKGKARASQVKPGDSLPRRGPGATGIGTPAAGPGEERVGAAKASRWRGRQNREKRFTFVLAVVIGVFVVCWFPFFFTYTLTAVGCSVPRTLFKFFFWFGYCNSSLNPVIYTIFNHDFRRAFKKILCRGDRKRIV
Set-up: method as in Simmler et al. (2013). Particulars: reference substance; ref Simmler et al. (2013); cited from earlier work.

For test [5], the target named is T5, dopaminergic hD2 receptor (Homo sapiens, UniProt P14416).
T5 construct: expressed in transfected cells; host or cells: HEK 293 cells (membrane preparations)
More on the design: method as in Simmler et al. (2013). Particulars: reference substance; ref Simmler et al. (2013); cited from earlier work.

Test [6] deals with T6, hNET (Homo sapiens, UniProt P23975).
T6 construct: expressed in transfected cells; host or cells: HEK 293 cells (membrane preparations)
Set-up: method as in Simmler et al. (2013). Particulars: reference substance; ref Simmler et al. (2013); cited from earlier work.

Test [7] concerns the target T7, hDAT (Homo sapiens, UniProt Q01959).
T7 construct: expressed in transfected cells; host or cells: HEK 293 cells (membrane preparations)
More on the design: method as in Simmler et al. (2013). Particulars: reference substance; ref Simmler et al. (2013); cited from earlier work.

Test [8] addresses T8, hSERT (Homo sapiens, UniProt P31645).
T8 construct: expressed in transfected cells; host or cells: HEK 293 cells (membrane preparations)
Set-up: method as in Simmler et al. (2013). Particulars: reference substance; ref Simmler et al. (2013); cited from earlier work.

A further test has as its target T9, h5-HT1A receptor (Homo sapiens, UniProt P08908).
T9 construct: expressed in transfected cells; host or cells: HEK 293 cells (membrane preparations)
T9 sequence (P08908 1-422): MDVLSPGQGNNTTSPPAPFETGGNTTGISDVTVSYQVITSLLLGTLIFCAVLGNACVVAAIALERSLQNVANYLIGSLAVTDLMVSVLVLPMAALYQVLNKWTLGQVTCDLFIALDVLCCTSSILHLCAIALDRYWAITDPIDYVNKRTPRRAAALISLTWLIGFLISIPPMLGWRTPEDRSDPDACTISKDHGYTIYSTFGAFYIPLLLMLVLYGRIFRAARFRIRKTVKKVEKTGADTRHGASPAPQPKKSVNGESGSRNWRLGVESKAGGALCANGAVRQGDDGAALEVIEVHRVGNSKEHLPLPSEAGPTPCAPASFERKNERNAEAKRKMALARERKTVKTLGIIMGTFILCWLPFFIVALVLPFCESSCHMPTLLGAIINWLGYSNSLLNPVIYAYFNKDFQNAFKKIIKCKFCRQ
In words: Radioligand binding at h5-HT1A receptor ([3H]8-OH-DPAT).

Another test has as its target T10, h5-HT2A receptor (Homo sapiens, UniProt P28223).
T10 construct: expressed in transfected cells; host or cells: HEK 293 cells (membrane preparations)
In words: Radioligand binding at h5-HT2A receptor ([3H]ketanserin). Particulars: h5-HT2A Receptor binding Ki ± SD, [3H]ketanserin; mean ± SD.

The next test concerns the target T11, h5-HT2C receptor (Homo sapiens, UniProt P28335).
T11 construct: expressed in transfected cells; host or cells: HEK 293 cells (membrane preparations)
T11 sequence (P28335 33-458): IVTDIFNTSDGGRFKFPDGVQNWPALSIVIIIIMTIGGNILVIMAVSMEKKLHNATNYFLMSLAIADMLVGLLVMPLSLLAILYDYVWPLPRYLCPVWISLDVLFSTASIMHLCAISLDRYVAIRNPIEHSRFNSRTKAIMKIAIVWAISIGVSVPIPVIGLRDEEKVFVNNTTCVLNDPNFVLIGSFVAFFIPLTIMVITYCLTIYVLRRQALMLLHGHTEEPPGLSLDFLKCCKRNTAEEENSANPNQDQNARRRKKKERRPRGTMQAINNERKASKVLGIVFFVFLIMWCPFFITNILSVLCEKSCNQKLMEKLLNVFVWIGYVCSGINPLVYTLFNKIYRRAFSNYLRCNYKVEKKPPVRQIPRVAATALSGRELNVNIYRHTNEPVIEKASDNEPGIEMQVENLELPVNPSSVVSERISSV
In words: biochemical. The test is classed as binding. Particulars: [3H]mesulergine; mean ± SD; read-out: h5-HT2C Receptor binding Ki ± SD.

Test [9] deals with T1, rat TAAR1. In words: Radioligand binding at rat TAAR1 ([3H]RO5166017).
The target in test [10] is T2, mouse TAAR1. In words: Radioligand binding at mouse TAAR1 ([3H]RO5166017).
For test [11], the target named is T3, hα1A adrenergic receptor. In words: Radioligand binding at hα1A adrenergic receptor ([3H]prazosin). As to conditions: mean ± SD.
Test [12] has as its target T4, hα2A adrenergic receptor. In words: Radioligand binding at hα2A adrenergic receptor ([3H]rauwolscine).
In test [13] the target is T5, dopaminergic hD2 receptor. In words: Radioligand binding at dopaminergic hD2 receptor ([3H]spiperone).
The target in test [14] is T6, hNET. In words: Radioligand binding at hNET (N-methyl-[3H]nisoxetine).
In test [15] the target is T7, hDAT. In words: Radioligand binding at hDAT ([3H]WIN35,428).
Test [16] has as its target T8, hSERT. In words: Radioligand binding at hSERT ([3H]citalopram).
The subject of another test is humans. Particulars: ref Shulgin and Shulgin 1991, cited from earlier work.
Another test concerns the target human 5-HT2B receptor (Homo sapiens, UniProt P41595). As to conditions: h5-HT2B Activation potency EC50 ± SD, HEK 293 cells, calcium FLIPR; mean ± SD.
Another test has as its target human 5-HT2A receptor (Homo sapiens, UniProt P28223). More on the design: expressed in transfected cells; host or cells: NIH-3T3 cells (mouse embryonic fibroblasts). As to conditions: read-out: h5-HT2A Activation potency EC50 ± SD; mescaline; ref Rickli et al. (2016); cited from earlier work.

Like-named read-outs stand apart in the source and are kept apart here.

T8 sequence (P31645 whole entry): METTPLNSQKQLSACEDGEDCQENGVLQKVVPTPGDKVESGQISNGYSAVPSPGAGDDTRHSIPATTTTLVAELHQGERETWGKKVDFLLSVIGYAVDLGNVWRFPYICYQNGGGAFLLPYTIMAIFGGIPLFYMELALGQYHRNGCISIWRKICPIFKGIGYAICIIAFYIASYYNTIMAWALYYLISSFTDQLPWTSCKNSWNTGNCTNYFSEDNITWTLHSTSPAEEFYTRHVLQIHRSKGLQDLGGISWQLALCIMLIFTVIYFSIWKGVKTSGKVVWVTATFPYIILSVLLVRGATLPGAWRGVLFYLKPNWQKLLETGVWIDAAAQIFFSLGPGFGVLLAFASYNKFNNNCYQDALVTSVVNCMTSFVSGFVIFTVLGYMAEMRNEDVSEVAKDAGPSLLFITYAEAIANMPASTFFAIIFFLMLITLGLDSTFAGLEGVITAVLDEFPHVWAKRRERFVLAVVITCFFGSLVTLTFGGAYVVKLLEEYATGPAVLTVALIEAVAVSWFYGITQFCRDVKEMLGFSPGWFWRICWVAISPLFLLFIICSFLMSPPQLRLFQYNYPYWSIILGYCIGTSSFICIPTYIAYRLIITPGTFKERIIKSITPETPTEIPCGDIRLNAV
T7 sequence (Q01959 whole entry): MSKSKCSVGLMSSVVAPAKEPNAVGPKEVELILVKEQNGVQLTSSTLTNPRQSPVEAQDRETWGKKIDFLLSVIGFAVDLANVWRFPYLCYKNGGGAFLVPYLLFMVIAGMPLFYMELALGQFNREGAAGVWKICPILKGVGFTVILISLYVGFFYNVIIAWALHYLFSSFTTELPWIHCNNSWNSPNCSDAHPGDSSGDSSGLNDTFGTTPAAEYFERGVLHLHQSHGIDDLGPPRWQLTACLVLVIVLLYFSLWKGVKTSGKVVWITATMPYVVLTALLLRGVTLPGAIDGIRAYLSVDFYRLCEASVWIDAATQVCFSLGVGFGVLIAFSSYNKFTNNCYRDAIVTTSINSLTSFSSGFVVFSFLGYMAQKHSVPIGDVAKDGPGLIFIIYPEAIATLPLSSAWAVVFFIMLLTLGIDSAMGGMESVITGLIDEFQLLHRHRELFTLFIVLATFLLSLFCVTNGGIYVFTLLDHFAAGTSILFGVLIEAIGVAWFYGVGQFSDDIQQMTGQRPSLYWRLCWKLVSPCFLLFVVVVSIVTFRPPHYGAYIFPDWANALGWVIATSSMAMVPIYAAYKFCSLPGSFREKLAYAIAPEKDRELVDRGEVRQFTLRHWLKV
T1 sequence (Q923Y9 whole entry): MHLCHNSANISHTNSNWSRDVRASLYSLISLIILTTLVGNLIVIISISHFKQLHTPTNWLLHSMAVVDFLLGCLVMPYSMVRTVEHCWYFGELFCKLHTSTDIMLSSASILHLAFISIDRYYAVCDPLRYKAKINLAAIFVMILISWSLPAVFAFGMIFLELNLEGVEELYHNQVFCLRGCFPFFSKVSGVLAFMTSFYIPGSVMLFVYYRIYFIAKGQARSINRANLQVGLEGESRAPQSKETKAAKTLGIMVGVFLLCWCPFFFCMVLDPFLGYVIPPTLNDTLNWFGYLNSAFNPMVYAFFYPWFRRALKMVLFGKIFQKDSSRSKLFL
T6 sequence (P23975 whole entry): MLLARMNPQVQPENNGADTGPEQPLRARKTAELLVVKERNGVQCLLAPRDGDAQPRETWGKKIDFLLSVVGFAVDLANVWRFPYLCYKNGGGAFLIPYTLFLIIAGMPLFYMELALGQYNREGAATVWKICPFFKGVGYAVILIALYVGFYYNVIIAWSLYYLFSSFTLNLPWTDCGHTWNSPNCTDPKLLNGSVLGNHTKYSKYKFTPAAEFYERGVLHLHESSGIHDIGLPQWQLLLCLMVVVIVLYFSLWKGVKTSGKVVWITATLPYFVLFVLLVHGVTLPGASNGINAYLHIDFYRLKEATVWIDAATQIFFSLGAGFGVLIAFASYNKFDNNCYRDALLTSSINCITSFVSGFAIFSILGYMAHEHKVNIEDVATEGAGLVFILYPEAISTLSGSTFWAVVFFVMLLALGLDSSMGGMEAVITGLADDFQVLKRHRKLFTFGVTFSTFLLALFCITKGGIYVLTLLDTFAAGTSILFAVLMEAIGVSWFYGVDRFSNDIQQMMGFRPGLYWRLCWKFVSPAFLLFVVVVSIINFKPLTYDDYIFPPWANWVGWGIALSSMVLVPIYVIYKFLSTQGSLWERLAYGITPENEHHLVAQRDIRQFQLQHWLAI
T5 sequence (P14416 whole entry): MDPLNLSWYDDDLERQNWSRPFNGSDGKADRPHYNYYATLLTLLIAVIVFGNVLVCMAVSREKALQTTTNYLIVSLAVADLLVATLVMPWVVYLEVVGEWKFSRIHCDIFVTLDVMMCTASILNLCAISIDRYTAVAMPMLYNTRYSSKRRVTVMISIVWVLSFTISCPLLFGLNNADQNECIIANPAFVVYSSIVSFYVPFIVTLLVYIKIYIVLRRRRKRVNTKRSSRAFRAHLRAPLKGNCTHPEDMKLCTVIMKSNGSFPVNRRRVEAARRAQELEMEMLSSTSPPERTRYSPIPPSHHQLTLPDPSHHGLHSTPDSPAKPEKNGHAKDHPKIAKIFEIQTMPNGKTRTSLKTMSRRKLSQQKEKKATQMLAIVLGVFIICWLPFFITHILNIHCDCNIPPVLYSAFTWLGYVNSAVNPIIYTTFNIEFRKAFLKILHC
T2 sequence (Q923Y8 whole entry): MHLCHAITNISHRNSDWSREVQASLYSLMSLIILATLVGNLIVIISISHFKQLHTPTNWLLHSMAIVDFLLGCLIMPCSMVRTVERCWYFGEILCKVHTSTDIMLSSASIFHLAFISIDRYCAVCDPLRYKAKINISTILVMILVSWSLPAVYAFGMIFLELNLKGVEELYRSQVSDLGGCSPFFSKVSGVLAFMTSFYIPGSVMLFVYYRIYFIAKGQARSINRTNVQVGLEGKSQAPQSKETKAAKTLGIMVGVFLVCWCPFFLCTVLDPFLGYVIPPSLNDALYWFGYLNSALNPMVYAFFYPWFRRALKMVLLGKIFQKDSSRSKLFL
human 5-HT2B receptor, sequence (P41595 whole entry): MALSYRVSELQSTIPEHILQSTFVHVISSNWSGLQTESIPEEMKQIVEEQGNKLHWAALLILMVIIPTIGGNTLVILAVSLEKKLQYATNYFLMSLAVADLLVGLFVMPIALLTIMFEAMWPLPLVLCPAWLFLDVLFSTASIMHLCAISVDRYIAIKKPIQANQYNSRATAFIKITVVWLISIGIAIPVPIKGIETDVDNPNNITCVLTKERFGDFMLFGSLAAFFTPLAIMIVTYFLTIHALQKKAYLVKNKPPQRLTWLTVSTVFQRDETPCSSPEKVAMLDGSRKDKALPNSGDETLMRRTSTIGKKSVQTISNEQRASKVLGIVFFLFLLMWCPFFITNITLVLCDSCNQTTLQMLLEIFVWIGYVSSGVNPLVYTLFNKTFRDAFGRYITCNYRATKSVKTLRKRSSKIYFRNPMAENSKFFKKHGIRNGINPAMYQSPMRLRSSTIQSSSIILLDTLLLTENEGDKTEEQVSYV
T10 sequence (P28223 whole entry): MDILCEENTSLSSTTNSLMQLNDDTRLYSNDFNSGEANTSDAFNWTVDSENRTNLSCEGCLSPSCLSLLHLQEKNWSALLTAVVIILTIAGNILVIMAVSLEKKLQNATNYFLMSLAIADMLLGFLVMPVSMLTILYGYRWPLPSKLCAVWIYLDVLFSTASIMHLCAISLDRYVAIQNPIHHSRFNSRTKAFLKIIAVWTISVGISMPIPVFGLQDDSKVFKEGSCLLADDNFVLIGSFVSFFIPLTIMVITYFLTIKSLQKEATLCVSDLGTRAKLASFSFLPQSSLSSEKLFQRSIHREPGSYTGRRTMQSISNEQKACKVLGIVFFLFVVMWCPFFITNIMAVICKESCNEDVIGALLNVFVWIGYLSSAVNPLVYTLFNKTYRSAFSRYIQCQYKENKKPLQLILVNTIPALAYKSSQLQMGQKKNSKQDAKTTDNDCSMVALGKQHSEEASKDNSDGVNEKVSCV
human 5-HT2A receptor, sequence (P28223 whole entry): as above

For `CNC(C)Cc1ccc2c(c1)OCO2` (stereo not drawn) [MDMA], the Ki on rat TAAR1 [1] was 0.37 ± 0.12 µM; at mouse TAAR1 [2], 2.4 µM; at hα1A adrenergic receptor [3] it was greater than 8.7 µM; on hα2A adrenergic receptor [4], greater than 5.1 µM; in [5], greater than 6.3 µM; at hNET [6], greater than 9.7 µM. In addition, the Ki on hDAT [7] is greater than 8.5 µM; on hSERT [8] it was greater than 7.5 µM.
In the case of `COc1cc(CCN)cc(OC)c1OC` [compound 5, 3,4,5-trimethoxyphenethylamine], the Ki was 6.7 µM at h5-HT1A receptor; 9.4 µM at h5-HT2A receptor; 9.9 µM at h5-HT2C receptor; 3 µM at rat TAAR1 [9]; greater than 4.2 µM on mouse TAAR1 [10]; greater than 8.7 µM at hα1A adrenergic receptor [11]. The Ki was 2 µM on hα2A adrenergic receptor [12]; greater than 6.3 µM in test [13]; greater than 9.7 µM at hNET [14]; greater than 8.5 µM at hDAT [15]; greater than 7.5 µM on hSERT [16]. For the same compound, the Duration of action with humans (humans, Shulgin and Shulgin 1997, Trachsel et al., 2013, listed as mescaline) is 8 to 12 h. Moreover, in the test on humans (psychedelic dose in humans, Shulgin and Shulgin 1997, Trachsel et al., 2013), the Human oral dose was 180 to 360 mg. The “Psychedelic / active dose in humans” value in the test on humans is 180 to 360 mg. In addition, the EC50 was greater than 10 µM on human 5-HT2B receptor and 10 µM on human 5-HT2A receptor.
